Assay [1] has as its system BT53. The assay can be described thus: alamarBlue BTIC viability assay, BT53. As to conditions: Homo sapiens, read-out: IC50 (viability).
Method: Accumax (eBioscience) was used to enzymatically dissociate BTIC spheres to single cells. Cells were seeded at 1000 cells per well in 96-well plates and treated with vehicle (DMSO) or drug, 24 hours after plating. BTIC viability was assessed after 7–14 days, once spheres were formed in control wells, by performing the alamarBlue™ (Invitrogen) assay per the manufacturer’s instructions. In brief, the alamar dye was added to each well and plates were read 6 hours later. Fluorescence intensity (excitation 540 nm; emission 590 nm) was measured on a SpectraMax M Series Multi-Mode Microplate reader. […] All experiments were performed in triplicate with a minimum of 3 wells per condition.
BTICs were treated with suboptimal doses of 1 μM pacritinib (CTI Biopharma), 10 μg/mL TMZ (Sigma), or a combination of pacritinib and TMZ. […] Percent inhibition was determined by normalizing each well to the control well (0.1% DMSO).
The subject of assay [2] is cleaved PARP. The assay can be described thus: western blotting of cleaved PARP in BTICs. Format: cell-based, human. As to conditions: BT69, 24 hours. Here is the method:
BTIC spheres were enzymatically dissociated as described above and plated at 10^6 cells/2 mL of media. Cells were treated with vehicle (DMSO), pacritinib, TMZ, or a combination of pacritinib and TMZ and pelleted at select time points (3, 24, and 48 hours). For protein extraction, BTICs were lysed in modified radio-immunoprecipitation assay buffer supplemented with Complete Mini protease (Roche) and Halt phosphatase (Thermo Scientific) inhibitor cocktails. […] Blots were stained with primary antibodies followed by horseradish peroxidase-conjugated secondary antibodies. […] Cell Signaling Technology), STAT3 (1:1000; Cell Signaling Technology), p-Akt S473 (1:1000; Cell Signaling Technology), Akt (1:1000; Cell Signaling Technology), p-p44/42 MAPK (T202/Y204) (1:1000; Cell Signaling Technology), p44/42 MAPK (1:4000; Cell Signaling Technology), poly (ADP-ribose) polymerase (1:1000; Cell Signaling Technology), β-tubulin (1:1000; Cell Signaling Technology), and Actin (1:1000; Santa Cruz Biotechnology). Secondary antibodies included donkey anti-mouse (1:5000; Cell Signaling Technology), donkey anti-goat (1:5000; Millipore), and goat anti-rabbit (1:5000; Cell Signaling Technology). […] Bands were visualized with the SuperSignal West Pico chemiluminescent solution (Thermo Scientific) and an Amersham™ Imager 600 (General Electric).
In general terms: Immunoblotting shows a protein as a band on a membrane.

For assay [3], the system named is BT147 orthotopic xenograft. Put plainly: Kaplan-Meier survival, orthotopic BT147 xenograft. Format: in vivo. As to conditions: BT147 xenografted mice. The protocol:
For Kaplan-Meier survival studies, BTIC spheres from BT53 or BT147 were dissociated to a single-cell suspension. Mice were anaesthetized using 10 mg/kg ketamine/xylazine. Buprenorphine (0.05 mg/kg) was administered once pre-operatively and once post-operatively to minimize animal suffering. 5 x 10^4 cells were stereotactically implanted into the right striata of 8- to 10-week-old female severe combined immunodeficient (SCID) mice, as previously described and approved by the University of Calgary Health Sciences Animal Care Committee, accredited by CCAC. Mice were randomized to vehicle or treatment cohorts, with a minimum of 8 mice per group, one week after cell implantation. For BT147, vehicle (Ora-Plus; Galenova), pacritinib (100 mg/kg), TMZ (30 mg/kg), or a combination of pacritinib (100 mg/kg) and TMZ (30 mg/kg), were administered via oral gavage. Animals completed a five-week regimen of three weekly treatments for a total of 15 treatments. For BT53, 100 mg/kg of pacritinib was administered twice per day alone or in combination with 50 mg/kg TMZ once per day, for one week via oral gavage. Following this, mice received 100 mg/kg pacritinib twice per day in combination with 10 mg/kg TMZ once per day for two weeks. Mice were euthanized with a lethal dose of sodium pentobarbital at a pre-defined humane endpoint. Specific criteria for the endpoint included: 20% weight loss, lack of grooming, inactivity, hind limb paralysis, and/or inability to eat or drink. The body weights were closely monitored throughout the course of the experiment. […] The presence of tumor was confirmed in the mice via necropsy and cranial dissection.

As a reminder, the IC50 is the concentration at which inhibition is half-maximal. On to `C1=C/COCc2cc(ccc2OCCN2CCCC2)Nc2nccc(n2)-c2cccc(c2)COC/1` [pacritinib], for which the 50% inhibitory concentration (IC50) in assay [1] is 920 nM. In assay [2], the “cell death (cleaved PARP levels)” value is recorded as “increase in cleaved PARP levels”. In assay [3] (100 mg/kg pacritinib, p < 0.4649 log-rank), the “survival advantage, single agent” value is recorded as “no survival advantage”. In addition, the median survival in assay [3] (pacritinib 100 mg/kg, TMZ 30 mg/kg, oral, thrice weekly for five weeks, control 52 days) turned out to be 48 days.

These data come from paper PMC5734728, “The JAK2/STAT3 inhibitor pacritinib effectively inhibits patient-derived GBM brain tumor initiating cells in vitro and when used in combination with temozolomide increases survival in an orthotopic xenograft model” (PLoS ONE, 2017).
